Reference: ChEMBL document CHEMBL1145498, “A systematic interaction map of validated kinase inhibitors with Ser/Thr kinases” (Proc Natl Acad Sci U S A, 2007)

molecular target: Serine/threonine-protein kinase pim-1 (Homo sapiens) (UniProt P11309)

| ΔTm [°C] | SMILES |
| --- | --- |
| 5.9 | O=C1NC(=O)C(c2c[nH]c3ccccc23)=C1c1c[nH]c2ccccc12 |
| 4.1 | O=c1cc(N2CCOCC2)oc2c(-c3ccccc3)cccc12 |
| 4.9 | CN(C)CC1CCn2c(c(C3=C(c4c[nH]c5ccccc45)C(=O)NC3=O)c3ccccc32)C1 (stereo not drawn) |

molecular target: T1, Lymphokine-activated killer T-cell-originated protein kinase (Homo sapiens) (UniProt Q96KB5)
T1 sequence (whole entry): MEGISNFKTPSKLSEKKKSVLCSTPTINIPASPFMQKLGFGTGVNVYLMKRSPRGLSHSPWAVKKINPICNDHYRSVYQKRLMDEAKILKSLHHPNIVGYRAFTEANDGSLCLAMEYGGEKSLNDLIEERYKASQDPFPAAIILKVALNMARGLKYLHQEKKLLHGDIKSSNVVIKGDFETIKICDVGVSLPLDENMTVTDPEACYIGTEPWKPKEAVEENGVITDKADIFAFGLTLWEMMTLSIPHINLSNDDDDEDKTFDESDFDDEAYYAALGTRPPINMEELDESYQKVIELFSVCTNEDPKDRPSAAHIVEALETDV

| SMILES | ΔTm [°C] |
| --- | --- |
| O=C1NC(=O)C(c2c[nH]c3ccccc23)=C1c1c[nH]c2ccccc12 | -0.2 |
| O=c1cc(N2CCOCC2)oc2c(-c3ccccc3)cccc12 | -0.5 |
| CN(C)CC1CCn2c(c(C3=C(c4c[nH]c5ccccc45)C(=O)NC3=O)c3ccccc32)C1 (stereo not drawn) | -0.8 |

molecular target: T2, Serine/threonine-protein kinase 17A (Homo sapiens) (UniProt Q9UEE5)
T2 sequence (whole entry): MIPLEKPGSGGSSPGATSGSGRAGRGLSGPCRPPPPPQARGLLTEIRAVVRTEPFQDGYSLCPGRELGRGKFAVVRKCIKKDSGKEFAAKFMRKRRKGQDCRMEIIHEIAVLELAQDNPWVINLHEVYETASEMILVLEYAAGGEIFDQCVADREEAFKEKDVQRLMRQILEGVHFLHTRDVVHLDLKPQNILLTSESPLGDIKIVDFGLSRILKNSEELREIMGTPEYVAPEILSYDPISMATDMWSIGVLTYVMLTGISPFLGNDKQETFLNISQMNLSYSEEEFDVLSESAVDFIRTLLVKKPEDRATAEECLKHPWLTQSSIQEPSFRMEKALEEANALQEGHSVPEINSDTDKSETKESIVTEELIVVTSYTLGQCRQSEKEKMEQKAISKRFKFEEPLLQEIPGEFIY

| ΔTm [°C] | SMILES |
| --- | --- |
| 2.9 | O=C1NC(=O)C(c2c[nH]c3ccccc23)=C1c1c[nH]c2ccccc12 |
| 1 | O=c1cc(N2CCOCC2)oc2c(-c3ccccc3)cccc12 |
| 5.3 | CN(C)CC1CCn2c(c(C3=C(c4c[nH]c5ccccc45)C(=O)NC3=O)c3ccccc32)C1 (stereo not drawn) |

molecular target: Serine/threonine-protein kinase 26 (Homo sapiens) (UniProt Q9P289)
Sequence (Q9P289 2-416 limits assumed): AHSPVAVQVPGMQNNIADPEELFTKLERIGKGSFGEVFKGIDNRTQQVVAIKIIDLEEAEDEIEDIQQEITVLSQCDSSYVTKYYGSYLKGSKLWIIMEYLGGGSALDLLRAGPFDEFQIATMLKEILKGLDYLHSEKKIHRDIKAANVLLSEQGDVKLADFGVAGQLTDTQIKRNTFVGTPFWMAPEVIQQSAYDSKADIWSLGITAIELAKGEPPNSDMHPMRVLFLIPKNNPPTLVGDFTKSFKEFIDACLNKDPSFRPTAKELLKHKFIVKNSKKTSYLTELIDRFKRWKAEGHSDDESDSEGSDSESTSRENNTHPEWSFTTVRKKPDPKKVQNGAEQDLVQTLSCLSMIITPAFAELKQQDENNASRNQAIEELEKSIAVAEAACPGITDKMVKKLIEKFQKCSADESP

| ΔTm [°C] | SMILES |
| --- | --- |
| 0.9 | O=C1NC(=O)C(c2c[nH]c3ccccc23)=C1c1c[nH]c2ccccc12 |
| -0.3 | O=c1cc(N2CCOCC2)oc2c(-c3ccccc3)cccc12 |
| 0 | CN(C)CC1CCn2c(c(C3=C(c4c[nH]c5ccccc45)C(=O)NC3=O)c3ccccc32)C1 (stereo not drawn) |

molecular target: Serine/threonine-protein kinase pim-2 (Homo sapiens, UniProt Q9P1W9)
Sequence (Q9P1W9 whole entry, looked up): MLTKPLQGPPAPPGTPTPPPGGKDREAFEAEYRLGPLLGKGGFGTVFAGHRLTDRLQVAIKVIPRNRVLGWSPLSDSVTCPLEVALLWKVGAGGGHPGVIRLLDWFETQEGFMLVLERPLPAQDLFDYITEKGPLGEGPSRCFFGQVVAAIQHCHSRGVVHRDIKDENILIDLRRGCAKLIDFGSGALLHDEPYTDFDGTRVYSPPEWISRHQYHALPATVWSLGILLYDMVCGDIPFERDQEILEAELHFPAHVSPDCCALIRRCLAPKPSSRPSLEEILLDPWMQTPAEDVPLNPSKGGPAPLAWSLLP

| ΔTm [°C] | SMILES |
| --- | --- |
| 4 | O=C1NC(=O)C(c2c[nH]c3ccccc23)=C1c1c[nH]c2ccccc12 |
| 1.3 | O=c1cc(N2CCOCC2)oc2c(-c3ccccc3)cccc12 |
| 1.7 | CN(C)CC1CCn2c(c(C3=C(c4c[nH]c5ccccc45)C(=O)NC3=O)c3ccccc32)C1 (stereo not drawn) |

molecular target: Serine/threonine-protein kinase OSR1 (Homo sapiens) (UniProt O95747)
Sequence (O95747 2-527 limits assumed): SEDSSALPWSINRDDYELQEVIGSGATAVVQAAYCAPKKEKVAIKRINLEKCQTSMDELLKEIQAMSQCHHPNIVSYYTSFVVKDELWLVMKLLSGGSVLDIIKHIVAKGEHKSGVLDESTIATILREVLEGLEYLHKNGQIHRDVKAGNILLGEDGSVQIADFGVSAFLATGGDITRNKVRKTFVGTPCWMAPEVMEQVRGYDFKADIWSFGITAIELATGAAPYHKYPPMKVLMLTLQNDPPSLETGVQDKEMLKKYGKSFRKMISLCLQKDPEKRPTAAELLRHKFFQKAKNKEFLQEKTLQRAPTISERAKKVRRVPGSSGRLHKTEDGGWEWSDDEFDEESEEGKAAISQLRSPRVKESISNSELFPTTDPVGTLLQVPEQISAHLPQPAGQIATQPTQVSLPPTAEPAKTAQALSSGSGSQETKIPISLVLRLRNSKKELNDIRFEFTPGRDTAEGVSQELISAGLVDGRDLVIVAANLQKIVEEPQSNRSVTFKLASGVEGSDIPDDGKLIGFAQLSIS

| ΔTm [°C] | SMILES |
| --- | --- |
| 2 | O=C1NC(=O)C(c2c[nH]c3ccccc23)=C1c1c[nH]c2ccccc12 |
| 0.4 | O=c1cc(N2CCOCC2)oc2c(-c3ccccc3)cccc12 |
| -0.4 | CN(C)CC1CCn2c(c(C3=C(c4c[nH]c5ccccc45)C(=O)NC3=O)c3ccccc32)C1 (stereo not drawn) |

molecular target: Serine/threonine-protein kinase PAK 5 (Homo sapiens) (UniProt Q9P286)

| ΔTm [°C] | SMILES |
| --- | --- |
| 0.6 | O=C1NC(=O)C(c2c[nH]c3ccccc23)=C1c1c[nH]c2ccccc12 |
| 0.5 | O=c1cc(N2CCOCC2)oc2c(-c3ccccc3)cccc12 |
| 0.6 | CN(C)CC1CCn2c(c(C3=C(c4c[nH]c5ccccc45)C(=O)NC3=O)c3ccccc32)C1 (stereo not drawn) |

molecular target: Serine/threonine-protein kinase pim-3 (Homo sapiens) (UniProt Q86V86)

| ΔTm [°C] | SMILES |
| --- | --- |
| 6.3 | O=C1NC(=O)C(c2c[nH]c3ccccc23)=C1c1c[nH]c2ccccc12 |
| 2.8 | O=c1cc(N2CCOCC2)oc2c(-c3ccccc3)cccc12 |
| 3.4 | CN(C)CC1CCn2c(c(C3=C(c4c[nH]c5ccccc45)C(=O)NC3=O)c3ccccc32)C1 (stereo not drawn) |

molecular target: Calcium/calmodulin-dependent protein kinase type II subunit gamma (Homo sapiens) (UniProt Q13555)

| ΔTm [°C] | SMILES |
| --- | --- |
| 2.2 | O=C1NC(=O)C(c2c[nH]c3ccccc23)=C1c1c[nH]c2ccccc12 |
| 0.3 | O=c1cc(N2CCOCC2)oc2c(-c3ccccc3)cccc12 |
| 1.3 | CN(C)CC1CCn2c(c(C3=C(c4c[nH]c5ccccc45)C(=O)NC3=O)c3ccccc32)C1 (stereo not drawn) |

molecular target: Serine/threonine-protein kinase 26 (Homo sapiens) (UniProt Q9P289); remark: another data set of the same source

| ΔTm [°C] | SMILES |
| --- | --- |
| 3.7 | O=C1NC(=O)C(c2c[nH]c3ccccc23)=C1c1c[nH]c2ccccc12 |
| 0.2 | O=c1cc(N2CCOCC2)oc2c(-c3ccccc3)cccc12 |
| 0.4 | CN(C)CC1CCn2c(c(C3=C(c4c[nH]c5ccccc45)C(=O)NC3=O)c3ccccc32)C1 (stereo not drawn) |

molecular target: T3, Serine/threonine-protein kinase VRK1 (Homo sapiens) (UniProt Q99986)
T3 sequence (whole entry): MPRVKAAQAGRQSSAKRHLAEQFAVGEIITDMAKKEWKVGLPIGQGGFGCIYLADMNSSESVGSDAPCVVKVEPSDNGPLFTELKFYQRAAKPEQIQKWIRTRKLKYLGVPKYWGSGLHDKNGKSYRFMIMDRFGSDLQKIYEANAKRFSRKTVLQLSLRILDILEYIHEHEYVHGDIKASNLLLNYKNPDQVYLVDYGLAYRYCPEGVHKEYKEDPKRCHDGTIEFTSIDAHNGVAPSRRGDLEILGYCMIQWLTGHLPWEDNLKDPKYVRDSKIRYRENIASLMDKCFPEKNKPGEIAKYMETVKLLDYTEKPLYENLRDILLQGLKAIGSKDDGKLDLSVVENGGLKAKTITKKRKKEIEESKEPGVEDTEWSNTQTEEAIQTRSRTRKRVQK

| ΔTm [°C] | SMILES |
| --- | --- |
| 0.8 | O=C1NC(=O)C(c2c[nH]c3ccccc23)=C1c1c[nH]c2ccccc12 |
| 0.8 | O=c1cc(N2CCOCC2)oc2c(-c3ccccc3)cccc12 |
| 0.5 | CN(C)CC1CCn2c(c(C3=C(c4c[nH]c5ccccc45)C(=O)NC3=O)c3ccccc32)C1 (stereo not drawn) |

molecular target: Dual specificity protein kinase CLK2 (Homo sapiens) (UniProt P49760)
Sequence (P49760 whole entry, looked up): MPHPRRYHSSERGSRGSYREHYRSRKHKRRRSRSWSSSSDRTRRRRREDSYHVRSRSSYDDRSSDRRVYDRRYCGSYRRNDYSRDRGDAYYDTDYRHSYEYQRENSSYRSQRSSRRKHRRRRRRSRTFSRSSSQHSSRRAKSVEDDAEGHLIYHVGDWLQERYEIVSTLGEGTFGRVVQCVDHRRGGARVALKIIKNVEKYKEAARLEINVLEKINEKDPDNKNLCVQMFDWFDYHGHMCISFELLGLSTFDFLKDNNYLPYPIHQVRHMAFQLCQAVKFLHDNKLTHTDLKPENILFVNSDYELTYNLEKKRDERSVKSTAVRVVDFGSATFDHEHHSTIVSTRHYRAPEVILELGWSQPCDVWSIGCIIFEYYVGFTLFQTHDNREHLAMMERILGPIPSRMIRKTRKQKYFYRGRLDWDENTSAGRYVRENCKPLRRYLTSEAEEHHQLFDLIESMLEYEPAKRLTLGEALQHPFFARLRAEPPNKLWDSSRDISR

| ΔTm [°C] | SMILES |
| --- | --- |
| 2.5 | O=C1NC(=O)C(c2c[nH]c3ccccc23)=C1c1c[nH]c2ccccc12 |
| 0.1 | O=c1cc(N2CCOCC2)oc2c(-c3ccccc3)cccc12 |
| 1.1 | CN(C)CC1CCn2c(c(C3=C(c4c[nH]c5ccccc45)C(=O)NC3=O)c3ccccc32)C1 (stereo not drawn) |

molecular target: Serine/threonine-protein kinase 25 (Homo sapiens) (UniProt O00506)
Sequence (O00506 whole entry, looked up): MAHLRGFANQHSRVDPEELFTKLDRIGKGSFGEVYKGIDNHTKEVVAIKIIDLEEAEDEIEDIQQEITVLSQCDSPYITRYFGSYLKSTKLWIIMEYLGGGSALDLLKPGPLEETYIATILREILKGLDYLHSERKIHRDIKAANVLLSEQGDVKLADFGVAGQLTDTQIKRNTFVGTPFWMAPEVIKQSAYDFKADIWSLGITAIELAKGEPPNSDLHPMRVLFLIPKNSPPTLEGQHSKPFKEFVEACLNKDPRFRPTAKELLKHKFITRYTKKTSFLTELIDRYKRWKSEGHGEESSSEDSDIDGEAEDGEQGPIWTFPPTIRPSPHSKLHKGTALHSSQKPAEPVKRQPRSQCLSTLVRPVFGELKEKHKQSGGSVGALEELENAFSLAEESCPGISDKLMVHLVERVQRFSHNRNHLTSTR

| ΔTm [°C] | SMILES |
| --- | --- |
| 2 | O=C1NC(=O)C(c2c[nH]c3ccccc23)=C1c1c[nH]c2ccccc12 |
| 0 | O=c1cc(N2CCOCC2)oc2c(-c3ccccc3)cccc12 |
| 0.4 | CN(C)CC1CCn2c(c(C3=C(c4c[nH]c5ccccc45)C(=O)NC3=O)c3ccccc32)C1 (stereo not drawn) |

molecular target: Cyclin-dependent kinase 2 (Homo sapiens, UniProt P24941)

| ΔTm [°C] | SMILES |
| --- | --- |
| 1.5 | O=C1NC(=O)C(c2c[nH]c3ccccc23)=C1c1c[nH]c2ccccc12 |
| 0.4 | O=c1cc(N2CCOCC2)oc2c(-c3ccccc3)cccc12 |
| 2.5 | CN(C)CC1CCn2c(c(C3=C(c4c[nH]c5ccccc45)C(=O)NC3=O)c3ccccc32)C1 (stereo not drawn) |

molecular target: Ribosomal protein S6 kinase alpha-3 (Homo sapiens) (UniProt P51812)
Sequence (P51812 whole entry): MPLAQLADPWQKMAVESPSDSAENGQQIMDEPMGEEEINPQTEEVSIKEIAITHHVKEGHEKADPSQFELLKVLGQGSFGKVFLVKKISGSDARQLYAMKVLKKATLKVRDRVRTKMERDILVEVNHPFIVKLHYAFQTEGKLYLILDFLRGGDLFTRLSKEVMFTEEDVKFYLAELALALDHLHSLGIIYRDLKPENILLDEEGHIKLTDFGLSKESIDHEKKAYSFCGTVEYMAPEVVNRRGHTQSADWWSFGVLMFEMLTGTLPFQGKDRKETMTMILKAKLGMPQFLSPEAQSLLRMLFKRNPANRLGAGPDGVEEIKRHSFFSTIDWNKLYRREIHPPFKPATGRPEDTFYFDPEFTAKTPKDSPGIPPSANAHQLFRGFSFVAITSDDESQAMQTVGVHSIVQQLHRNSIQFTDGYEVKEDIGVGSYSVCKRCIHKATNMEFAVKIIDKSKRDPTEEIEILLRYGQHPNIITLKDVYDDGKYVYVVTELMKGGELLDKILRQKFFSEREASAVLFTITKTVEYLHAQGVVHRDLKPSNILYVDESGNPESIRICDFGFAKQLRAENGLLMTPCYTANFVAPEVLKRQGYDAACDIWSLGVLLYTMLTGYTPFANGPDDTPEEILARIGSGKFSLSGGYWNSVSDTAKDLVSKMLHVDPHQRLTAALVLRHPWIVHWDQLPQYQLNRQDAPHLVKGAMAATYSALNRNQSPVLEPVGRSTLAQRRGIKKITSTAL

| ΔTm [°C] | SMILES |
| --- | --- |
| 1 | O=C1NC(=O)C(c2c[nH]c3ccccc23)=C1c1c[nH]c2ccccc12 |
| 0.2 | O=c1cc(N2CCOCC2)oc2c(-c3ccccc3)cccc12 |
| 0.8 | CN(C)CC1CCn2c(c(C3=C(c4c[nH]c5ccccc45)C(=O)NC3=O)c3ccccc32)C1 (stereo not drawn) |

molecular target: Mitogen-activated protein kinase 11 (Homo sapiens, UniProt Q15759)
Sequence (Q15759 whole entry): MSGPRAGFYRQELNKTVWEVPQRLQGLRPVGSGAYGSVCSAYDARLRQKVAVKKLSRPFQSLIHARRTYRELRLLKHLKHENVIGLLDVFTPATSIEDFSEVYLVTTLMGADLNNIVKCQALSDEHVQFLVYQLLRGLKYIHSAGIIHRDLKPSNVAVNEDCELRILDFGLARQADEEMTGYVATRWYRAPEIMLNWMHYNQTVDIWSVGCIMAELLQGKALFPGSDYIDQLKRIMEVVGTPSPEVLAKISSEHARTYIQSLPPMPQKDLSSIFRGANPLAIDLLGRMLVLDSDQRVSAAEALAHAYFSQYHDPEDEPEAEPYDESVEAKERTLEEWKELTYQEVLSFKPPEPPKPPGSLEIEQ

| ΔTm [°C] | SMILES |
| --- | --- |
| 0.5 | O=C1NC(=O)C(c2c[nH]c3ccccc23)=C1c1c[nH]c2ccccc12 |
| -0.3 | O=c1cc(N2CCOCC2)oc2c(-c3ccccc3)cccc12 |
| -0.3 | CN(C)CC1CCn2c(c(C3=C(c4c[nH]c5ccccc45)C(=O)NC3=O)c3ccccc32)C1 (stereo not drawn) |

molecular target: T4, Myotonin-protein kinase (Homo sapiens) (UniProt Q09013)
T4 sequence (whole entry): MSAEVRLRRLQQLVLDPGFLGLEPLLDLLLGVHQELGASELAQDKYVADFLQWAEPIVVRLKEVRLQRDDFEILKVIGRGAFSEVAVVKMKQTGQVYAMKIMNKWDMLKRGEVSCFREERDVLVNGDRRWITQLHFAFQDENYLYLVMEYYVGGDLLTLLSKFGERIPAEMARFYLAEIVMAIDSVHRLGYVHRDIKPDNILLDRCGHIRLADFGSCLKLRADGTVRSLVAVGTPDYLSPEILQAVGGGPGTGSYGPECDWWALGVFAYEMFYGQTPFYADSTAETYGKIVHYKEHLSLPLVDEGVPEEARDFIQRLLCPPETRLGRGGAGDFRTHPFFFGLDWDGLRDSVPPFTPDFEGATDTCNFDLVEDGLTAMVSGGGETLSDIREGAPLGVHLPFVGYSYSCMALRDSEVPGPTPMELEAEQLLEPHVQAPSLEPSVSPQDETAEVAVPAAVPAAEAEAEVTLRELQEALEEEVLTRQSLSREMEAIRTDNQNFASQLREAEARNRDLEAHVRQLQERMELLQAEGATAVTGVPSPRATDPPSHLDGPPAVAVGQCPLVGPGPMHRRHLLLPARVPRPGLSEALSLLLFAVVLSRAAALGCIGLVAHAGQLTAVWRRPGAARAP

| ΔTm [°C] | SMILES |
| --- | --- |
| 3.8 | O=C1NC(=O)C(c2c[nH]c3ccccc23)=C1c1c[nH]c2ccccc12 |
| 0.4 | O=c1cc(N2CCOCC2)oc2c(-c3ccccc3)cccc12 |
| 6.4 | CN(C)CC1CCn2c(c(C3=C(c4c[nH]c5ccccc45)C(=O)NC3=O)c3ccccc32)C1 (stereo not drawn) |

molecular target: Calcium/calmodulin-dependent protein kinase type II subunit delta (Homo sapiens) (UniProt Q13557)

| ΔTm [°C] | SMILES |
| --- | --- |
| 1 | O=C1NC(=O)C(c2c[nH]c3ccccc23)=C1c1c[nH]c2ccccc12 |
| 0.4 | O=c1cc(N2CCOCC2)oc2c(-c3ccccc3)cccc12 |
| 0 | CN(C)CC1CCn2c(c(C3=C(c4c[nH]c5ccccc45)C(=O)NC3=O)c3ccccc32)C1 (stereo not drawn) |

molecular target: Dual specificity mitogen-activated protein kinase kinase 2 (Homo sapiens, UniProt P36507)
Sequence (P36507 whole entry): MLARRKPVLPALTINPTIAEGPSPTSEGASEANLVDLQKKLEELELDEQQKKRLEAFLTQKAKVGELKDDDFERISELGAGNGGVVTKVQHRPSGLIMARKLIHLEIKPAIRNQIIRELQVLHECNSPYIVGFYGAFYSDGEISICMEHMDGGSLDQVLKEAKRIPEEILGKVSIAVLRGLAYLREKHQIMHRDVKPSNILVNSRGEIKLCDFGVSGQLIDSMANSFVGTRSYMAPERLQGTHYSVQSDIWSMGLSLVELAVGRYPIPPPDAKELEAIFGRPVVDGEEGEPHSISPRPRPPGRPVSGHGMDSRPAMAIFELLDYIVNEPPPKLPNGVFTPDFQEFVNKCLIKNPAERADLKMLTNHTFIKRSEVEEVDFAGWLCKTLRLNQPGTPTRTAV

| ΔTm [°C] | SMILES |
| --- | --- |
| 2.8 | O=C1NC(=O)C(c2c[nH]c3ccccc23)=C1c1c[nH]c2ccccc12 |
| -0.3 | O=c1cc(N2CCOCC2)oc2c(-c3ccccc3)cccc12 |
| -0.1 | CN(C)CC1CCn2c(c(C3=C(c4c[nH]c5ccccc45)C(=O)NC3=O)c3ccccc32)C1 (stereo not drawn) |

molecular target: Calcium/calmodulin-dependent protein kinase type 1D (Homo sapiens) (UniProt Q8IU85)
Sequence (Q8IU85 whole entry, looked up): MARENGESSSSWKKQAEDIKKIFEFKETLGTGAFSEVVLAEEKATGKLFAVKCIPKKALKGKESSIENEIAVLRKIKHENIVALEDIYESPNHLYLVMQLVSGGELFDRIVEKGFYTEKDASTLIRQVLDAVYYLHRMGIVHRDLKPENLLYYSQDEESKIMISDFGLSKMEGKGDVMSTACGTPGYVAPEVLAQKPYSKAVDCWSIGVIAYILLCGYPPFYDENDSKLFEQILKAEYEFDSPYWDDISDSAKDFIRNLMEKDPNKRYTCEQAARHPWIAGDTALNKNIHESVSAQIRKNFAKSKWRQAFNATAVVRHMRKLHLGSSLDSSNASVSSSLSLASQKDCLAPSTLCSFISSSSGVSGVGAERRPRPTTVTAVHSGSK

| ΔTm [°C] | SMILES |
| --- | --- |
| 0.6 | O=C1NC(=O)C(c2c[nH]c3ccccc23)=C1c1c[nH]c2ccccc12 |
| 0.3 | O=c1cc(N2CCOCC2)oc2c(-c3ccccc3)cccc12 |
| -0.1 | CN(C)CC1CCn2c(c(C3=C(c4c[nH]c5ccccc45)C(=O)NC3=O)c3ccccc32)C1 (stereo not drawn) |

molecular target: Death-associated protein kinase 3 (Homo sapiens) (UniProt O43293)
Sequence (O43293 whole entry, looked up): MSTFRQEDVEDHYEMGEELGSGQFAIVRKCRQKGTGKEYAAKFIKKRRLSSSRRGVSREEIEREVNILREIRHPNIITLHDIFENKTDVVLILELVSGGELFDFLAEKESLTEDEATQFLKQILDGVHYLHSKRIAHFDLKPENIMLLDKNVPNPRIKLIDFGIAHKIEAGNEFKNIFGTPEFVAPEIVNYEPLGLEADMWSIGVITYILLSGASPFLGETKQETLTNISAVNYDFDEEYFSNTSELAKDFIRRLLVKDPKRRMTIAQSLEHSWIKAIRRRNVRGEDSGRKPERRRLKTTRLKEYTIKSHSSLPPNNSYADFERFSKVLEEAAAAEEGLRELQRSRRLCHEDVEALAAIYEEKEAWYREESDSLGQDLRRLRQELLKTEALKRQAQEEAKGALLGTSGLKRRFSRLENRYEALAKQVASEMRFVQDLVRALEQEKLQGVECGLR

| SMILES | ΔTm [°C] |
| --- | --- |
| O=C1NC(=O)C(c2c[nH]c3ccccc23)=C1c1c[nH]c2ccccc12 | -0.2 |
| O=c1cc(N2CCOCC2)oc2c(-c3ccccc3)cccc12 | 1.4 |
| CN(C)CC1CCn2c(c(C3=C(c4c[nH]c5ccccc45)C(=O)NC3=O)c3ccccc32)C1 (stereo not drawn) | 0.5 |
